The results in this text go back to patent publication US8420652B2, “Use of aryl piperazine derivatives in manufacturing medicants for treating pain” (NHWA Pharma Corporation, priority 2008, dated 2013).

The term ED50 denotes the dose that gives a 50% effect, or the effect in half of the subjects.

The structures appear in SMILES notation. Read-outs that look alike come from different tables or passages of the source.

Assay type in all cases: in vivo
One assay has as its system Kunming mice. Briefly: Acetic acid-induced writhing test. The note with it: for ED50: Mus musculus, read-out: ED50, analgesic activity in writhing test. The method, then:
Kunming mice (18-22 g, male and female each half) were divided into a negative control group, an Aspirin control group, a morphine control group and a group of the compound of the invention. Each group of mice were respectively administered corresponding medicine (0.2 ml/10 g) intragastrically or subcutaneously, The mice of the negative control group were administered, the same volume vehicle. After 60 minutes (intragastrically) or 30 minutes (subcutaneously), each group of mice were administered 0.6% acetic acid solution (0.4 ml) by intraperitoneal injecting, and then writhing times in 15 minutes were observed and recorded immediately. Writhing inhibition rate in mice was used as the pharmacodynamic index of analgesic activity. Writhing inhibition rate(%)=(writhing times of negative control group−writhing times of medicine group)/Writhing times of negative control group×100%
ED50 values were calculated according to the result.
For orientation: In writhing tests, fewer writhes than in controls are read as antinociception.

The next assay has as its system KM female mice. Briefly: Hot-plate test in mice. The conditions noted are these: for ED50: Mus musculus, 1 h, read-out: ED50, analgesic activity in the hot-plate test. An excerpt: Hot-plate test is one of conventional physiological pain models. Mice lick hind paws, jump up and so on when they are subject to thermal stimulus. Analgesics that take effect on central nervous system can increase the thermo-pain threshold, prolong the latency of protective response.
KM female mice weighting 18-22 g were employed in the test. Primary screening was done before the test to remove the animals whose responses were too slow (>30 s) or too sensitive (<6 s). The mice passing the primary screening were divided into a negative control group, a morphine control group and a group of the compound of the invention. Each group of mice were respectively administered corresponding dose of medicine intragastrically or by intravenous injection, and 60 minutes later, a hot-plate test was done on those mice. The time of first licking hind paws and jumping up was recorded (the data over 60 s is recorded as 60) and compared with the latency of the animals in the control group. The analgesic activity of each dose was calculated and ED50 was calculated from the analgesic activity.

In assay [1] the test system is Sprague-Dawley (SD) rats. Nature of the assay: Bee venom test. The conditions noted are these: for ED50, analgesic activity in the bee venom test: intrathecally, bee venom 5 minutes after administration; for ED50: Rattus norvegicus, central, 5 min, read-out: ED50, analgesic activity in the bee venom test. The method, then:
Adult male Sprague-Dawley (SD) rats weighting 200-250 g were used in the test after acclimation by feeding for 1 week. First, tubes were placed intrathecally (i.t.) in rats. The rats with good conditions after 3-4 days were selected for the bee venom test. The animals were divided into an intrathecal DMSO group, an intrathecal morphine group and a group of intrathecal compounds of the invention. 5 minutes after administration, each group of rats was […] injected with 50 μl of bee venom at their left hind limbs. Times of feet spontaneous drawing back every 5 minutes in 60 minutes, as well as total times of feet drawing back in an hour were observed and recorded. The response latency to heat stimulus and threshold of mechanical stimulus on both thenars of each group of rats were measured before intrathecal administration and 2 hours after bee venom injection respectively.

For assay [2], the system named is Sprague-Dawley (SD) rats. Briefly: Spared nerve injury (SNI) test. The conditions noted are these: intragastrically on Day 12, 13, 14 after surgery, mechanical allodynia at 60 minutes after administration; for ED50: Rattus norvegicus, po, read-out: ED50, analgesic activity in the spared nerve injury (SNI) test. An excerpt: Neuropathic pain is also called for short as neuralgia, which is a common chronic pain. It is an abnormal pain condition caused by hurt or disease-induced trauma of peripheral or central nerve, and can not be cured effectively till now. Sciatic nerve branches selective injury model (spared nerve injury, SNI) is a neuralgia model established in 2000 (see Spared nerve injury: an animal model of persistent peripheral neuropathic pain, Pain, 2000 August; 87(2): 149-58). The model can produce […] robust mechanical allodynia, so it can simulate the clinic nerve pathologic pain relatively well.
Adult male Sprague-Dawley (SD) rats weighting 200-250 g (Experimental Animal Center of Xuzhou Medical College) were employed in the test after acclimation by feeding for 1 week. First, Sciatic nerve branches selective injury model (spared nerve injury, SNI) was replicated, The rats of successful modeling were administered intragastrically on Day 12, 13, 14 after surgery. The mechanical allodynia were measured at 60 minutes after administration every day (von Frey Cilia Apparatus, manufactured by Institute of Biology Bioengineering, Chinese Academy of Medical Science).

The mark [3] stands for this setting: intragastrically, acetic acid 60 minutes after dosing, writhing times in 15 minutes.
Where [4] appears, read: subcutaneously (S. C), acetic acid 30 minutes after dosing, writhing times in 15 minutes.
Where [5] appears, read: intragastrically, tested 60 minutes after dosing.
[6] abbreviates: intravenous injection, tested 60 minutes after dosing.
The mark [7] stands for this setting: po, intragastrically, acetic acid 60 minutes after dosing, writhing times in 15 minutes.
Where [8] appears, read: sc, subcutaneously (S. C), acetic acid 30 minutes after dosing, writhing times in 15 minutes.

Consider `COc1ccc2nc(N3CCN(CC(=O)c4ccccc4)CC3)sc2c1` [Example 11], for which the “ED50, analgesic activity in writhing test” value (“ED50 … in writhing test” for short) came out at 200 mg/kg in the assay with Kunming mice (setting [3]) and 120 mg/kg with Kunming mice (setting [4]). For the same compound, the “ED50, analgesic activity in the hot-plate test” value (“ED50 … in the hot-plate test” below) in the assay with KM female mice (setting [5]) came to 150 mg/kg; in the assay with KM female mice (setting [6]), 60 mg/kg. Moreover, in the assay on Sprague-Dawley (SD) rats [1], the “ED50, analgesic activity in the bee venom test” value (“ED50 … in the bee venom test” below) worked out at 0.2 mg/kg. The “ED50, analgesic activity in the spared nerve injury (SNI) test” value (shortened to “ED50, analgesic activity … (SNI) test”) in the assay on Sprague-Dawley (SD) rats [2] was found to be 180 mg/kg.

Consider `O=C(CN1CCN(c2ccccc2Cl)CC1)c1ccccc1` [Example 4], for which the “ED50 … in writhing test” value amounted to 80 mg/kg in the assay with Kunming mice (setting [3]) and 36 mg/kg with Kunming mice (setting [4]). The “ED50, analgesic activity … (SNI) test” value in the assay on Sprague-Dawley (SD) rats [2] was 100 mg/kg.

In the case of `O=C(CN1CCN(c2nc3ccc(Cl)cc3s2)CC1)c1ccccc1` [Example 14], the “ED50 … in writhing test” value in the assay with Kunming mice (setting [3]) is 152 mg/kg; with Kunming mice (setting [4]) it was 78 mg/kg. Further, in the assay on Sprague-Dawley (SD) rats [2], the “ED50, analgesic activity … (SNI) test” value came out at 152 mg/kg.

`NCC1(CC(=O)O)CCCCC1` [Gabapentin, reference compound]: in the assay on Sprague-Dawley (SD) rats [2], the ED50 was found to be 50 mg/kg.

For the compound `COc1cccc(N2CCN(CC(=O)c3ccccc3)CC2)c1` [Example 2], the “ED50 … in writhing test” value stood at 5 mg/kg with Kunming mice (setting [3]) and 2 mg/kg in the assay with Kunming mice (setting [4]). In addition, the “ED50 … in the bee venom test” value with Sprague-Dawley (SD) rats [1] was found to be 0.1 mg/kg. The “ED50, analgesic activity … (SNI) test” value in the assay on Sprague-Dawley (SD) rats [2] was 15 mg/kg.

On to `Cc1ccc2nc(N3CCN(CC(=O)c4ccccc4)CC3)sc2c1` [Example 12], for which the “ED50 … in writhing test” value in the assay on Kunming mice (setting [3]) is 180 mg/kg; in the assay with Kunming mice (setting [4]), 100 mg/kg. Further, in the assay on Sprague-Dawley (SD) rats [2], the “ED50, analgesic activity … (SNI) test” value amounted to 200 mg/kg.

`Cc1cccc(N2CCN(CC(=O)c3ccccc3)CC2)c1C` [Example 10]: the “ED50 … in writhing test” value with Kunming mice (setting [3]) is 5 mg/kg; with Kunming mice (setting [4]) it was 10 mg/kg. The “ED50 … in the hot-plate test” value with KM female mice (setting [5]) amounted to 30 mg/kg; in the assay on KM female mice (setting [6]), 10 mg/kg. Also, the “ED50 … in the bee venom test” value in the assay on Sprague-Dawley (SD) rats [1] was determined as 0.03 mg/kg. Further, in the assay on Sprague-Dawley (SD) rats [2], the “ED50, analgesic activity … (SNI) test” value was found to be 15 mg/kg.

As to `COc1ccc(N2CCN(CC(=O)c3ccccc3)CC2)cc1` [Example 3], the figures for the “ED50 … in writhing test” value with Kunming mice (setting [3]) and in the assay on Kunming mice (setting [4]) were 30 mg/kg and 20 mg/kg, respectively. Moreover, the entries for the “ED50 … in the hot-plate test” value in the assay with KM female mice (setting [5]) and in the assay on KM female mice (setting [6]) were 50 mg/kg and 19 mg/kg, respectively. Also, in the assay with Sprague-Dawley (SD) rats [2], the “ED50, analgesic activity … (SNI) test” value was determined as 30 mg/kg.

As for `O=C(CN1CCN(c2ncccn2)CC1)c1ccccc1` [Example 16], the values for the 50% effective dose (ED50) in the assay on Kunming mice (setting [7]), in the assay on Kunming mice (setting [8]) and in the assay with Sprague-Dawley (SD) rats [2] were 132 mg/kg, 100 mg/kg and 167 mg/kg, respectively.

Turning to `O=C(CN1CCN(c2ccc(F)cc2)CC1)c1ccccc1` [Example 8], the median effective dose (ED50) amounted to 120 mg/kg in the assay with Kunming mice (setting [7]); 80 mg/kg with Kunming mice (setting [8]); 40 mg/kg in the assay with KM female mice (setting [6]); 120 mg/kg in the assay on KM female mice (po, intragastrically, tested 60 minutes after dosing); 0.12 mg/kg in the assay with Sprague-Dawley (SD) rats [1]; 150 mg/kg in the assay on Sprague-Dawley (SD) rats [2].

For `COc1ccccc1N1CCN(CC(=O)c2ccccc2)CC1` [Example 1], the entries for the “ED50 … in writhing test” value in the assay on Kunming mice (setting [3]) and in the assay on Kunming mice (setting [4]) were 20 mg/kg and 15 mg/kg, respectively. Further, the “ED50 … in the hot-plate test” value with KM female mice (setting [5]) came out at 25 mg/kg; in the assay on KM female mice (setting [6]), 8 mg/kg. Besides, the “ED50, analgesic activity … (SNI) test” value in the assay with Sprague-Dawley (SD) rats [2] stood at 40 mg/kg.

On to `O=C(CN1CCN(c2cccc(C(F)(F)F)c2)CC1)c1ccccc1` [Example 9], for which the “ED50 … in writhing test” value came to 3 mg/kg in the assay with Kunming mice (setting [3]) and 2 mg/kg in the assay with Kunming mice (setting [4]). Further, the “ED50 … in the hot-plate test” value is 20 mg/kg in the assay with KM female mice (setting [5]) and 5 mg/kg with KM female mice (setting [6]). For the same compound, in the assay with Sprague-Dawley (SD) rats [1], the “ED50 … in the bee venom test” value turned out to be 0.02 mg/kg. Also, the “ED50, analgesic activity … (SNI) test” value in the assay on Sprague-Dawley (SD) rats [2] came to 10 mg/kg.

For the compound `O=C(CN1CCN(c2cccc(Cl)c2Cl)CC1)c1ccccc1` [Example 7], the figures for the “ED50 … in writhing test” value with Kunming mice (setting [3]) and in the assay with Kunming mice (setting [4]) were 60 mg/kg and 20 mg/kg, respectively. Further, the figures for the “ED50 … in the hot-plate test” value in the assay on KM female mice (setting [5]) and with KM female mice (setting [6]) were 60 mg/kg and 20 mg/kg, respectively. In addition, in the assay with Sprague-Dawley (SD) rats [1], the “ED50 … in the bee venom test” value came to 0.08 mg/kg. In addition, the “ED50, analgesic activity … (SNI) test” value with Sprague-Dawley (SD) rats [2] stood at 60 mg/kg.

`CN1CC[C@]23c4c5ccc(O)c4O[C@H]2[C@@H](O)C=C[C@H]3[C@H]1C5` [Morphine, reference compound]: the ED50 was found to be 4 mg/kg in the assay with Kunming mice (po); 1 mg/kg in the assay on Kunming mice (sc); 1 mg/kg in the assay on KM female mice (iv); 2 mg/kg in the assay with KM female mice (po); 0.005 mg/kg in the assay with Sprague-Dawley (SD) rats [1].

In the case of `CC(=O)Oc1ccccc1C(=O)O` [Aspirin, reference compound], the ED50 with Kunming mice (setting [7]) came out at 100 mg/kg; in the assay with Kunming mice (setting [8]), 80 mg/kg.

With `O=C(CN1CCN(c2cccc(Cl)c2)CC1)c1ccccc1` [Example 5], the entries for the “ED50 … in writhing test” value in the assay on Kunming mice (setting [3]) and with Kunming mice (setting [4]) were 50 mg/kg and 18 mg/kg, respectively. For the same compound, the results for the “ED50 … in the hot-plate test” value with KM female mice (setting [5]) and in the assay with KM female mice (setting [6]) were 55 mg/kg and 20 mg/kg, respectively. The “ED50 … in the bee venom test” value with Sprague-Dawley (SD) rats [1] was 0.06 mg/kg. Further, the “ED50, analgesic activity … (SNI) test” value with Sprague-Dawley (SD) rats [2] is 80 mg/kg.
